Among the data in US11254686B1 (Corvus Pharmaceuticals, Inc., priority 2017, dated 2022) are IC50 and Ratio values, retold here.

For one assay, the target named is adenosine A2A receptor (Homo sapiens (Human), UniProt P29274). Description: Adenosine receptor activity assay (Table 1), A2A activity. The assay is classed as biochemical. The note with it: read-out: Ave A2A cAMP IC50.
The target of the next assay is adenosine A2B receptor (Homo sapiens (Human), UniProt P29275). Description: Adenosine receptor activity assay (Table 1), A2B activity. The assay is classed as biochemical. The note with it: for Ratio: A2A activity to A2B activity (A2A/A2B); for IC50: read-out: Ave A2B cAMP IC50.
Chain of adenosine A2B receptor (P29275 whole entry): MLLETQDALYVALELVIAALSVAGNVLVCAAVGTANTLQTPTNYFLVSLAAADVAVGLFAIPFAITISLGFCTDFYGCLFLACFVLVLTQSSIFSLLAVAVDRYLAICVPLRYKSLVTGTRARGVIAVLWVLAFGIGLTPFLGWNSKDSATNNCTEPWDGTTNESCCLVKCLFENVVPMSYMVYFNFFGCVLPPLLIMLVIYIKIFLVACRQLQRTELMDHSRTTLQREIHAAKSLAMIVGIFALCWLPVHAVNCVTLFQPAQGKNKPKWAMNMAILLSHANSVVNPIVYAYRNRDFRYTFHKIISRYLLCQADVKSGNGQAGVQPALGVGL

Chain of adenosine A2A receptor (P29274 whole entry): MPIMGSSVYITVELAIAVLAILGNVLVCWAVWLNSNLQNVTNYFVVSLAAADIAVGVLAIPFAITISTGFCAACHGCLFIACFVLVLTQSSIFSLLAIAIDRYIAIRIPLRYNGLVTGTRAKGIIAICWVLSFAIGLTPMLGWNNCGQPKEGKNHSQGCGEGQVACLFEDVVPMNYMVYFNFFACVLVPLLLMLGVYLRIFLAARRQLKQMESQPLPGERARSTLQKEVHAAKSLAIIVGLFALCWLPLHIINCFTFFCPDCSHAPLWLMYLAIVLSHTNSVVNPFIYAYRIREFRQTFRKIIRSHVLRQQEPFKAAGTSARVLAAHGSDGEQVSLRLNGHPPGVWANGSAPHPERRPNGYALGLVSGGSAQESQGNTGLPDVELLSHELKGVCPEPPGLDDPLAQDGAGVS

For the compound `O=C(c1nc(NCc2cccc(F)c2)nc2ccsc12)N1CC[C@@H](O)C1` [Example Z81, (R)-(2-((3-Fluorobenzyl)amino)thieno[3,2-d]pyrimidin-4-yl)(3-hydroxypyrrolidin-1-yl)methanone], the IC50 at adenosine A2A receptor lay within 100 to 500 nM. Also, at adenosine A2B receptor, the Ratio is 2.77 and the 50% inhibitory concentration (IC50) lay within 50 to 100 nM.

Turning to `COc1ccc(CNC(=O)c2nc(NCc3cccc(F)c3)nc3ccsc23)cn1` [Example Z82, 2-((3-Fluorobenzyl)amino)-N-((6-methoxypyridin-3-yl)methyl)thieno[3,2-d]pyrimidine-4-carboxamide], the IC50 at adenosine A2A receptor is 50 to 100 nM. For the same compound, at adenosine A2B receptor, the Ratio is given as 1.03 and the IC50 fell in the range of 50 to 100 nM.

In the case of `O=C(NCCn1ccnc1)c1nc(NCc2cncc(F)c2)nc2ccsc12` [Example Z85, N-(2-(1H-Imidazol-1-yl)ethyl)-2-(((5-fluoropyridin-3-yl)methyl)amino)thieno[3,2-d]pyrimidine-4-carboxamide], the half-maximal inhibitory concentration (IC50) at adenosine A2A receptor and at adenosine A2B receptor was over 500 nM throughout. The Ratio on adenosine A2B receptor is recorded as 1.04.

Take `Cc1ncccc1CNC(=O)c1nc(NCc2cccnc2C)nc2ccsc12` [Example Z88, N-((2-Methylpyridin-3-yl)methyl)-2-(((2-methylpyridin-3-yl)methyl)amino)thieno[3,2-d]pyrimidine-4-carboxamide]: the IC50 at adenosine A2A receptor was over 500 nM. In addition, on adenosine A2B receptor, the Ratio amounted to 1.00 and the IC50 is over 500 nM.

`COc1ccc(CNC(=O)c2nc(NCc3cccnc3C)nc3ccsc23)cn1` [Example Z94, N-((6-Methoxypyridin-3-yl)methyl)-2-(((2-methylpyridin-3-yl)methyl)amino)thieno[3,2-d]pyrimidine-4-carboxamide]: the IC50 on adenosine A2A receptor and at adenosine A2B receptor was 100 to 500 nM each time. At adenosine A2B receptor, the Ratio was determined as 1.00.

For the compound `CC1(O)CN(C(=O)c2nc(NCc3cncc(F)c3)nc3ccsc23)C1` [Example Z98, (2-(((5-Fluoropyridin-3-yl)methyl)amino)thieno[3,2-d]pyrimidin-4-yl)(3-hydroxy-3-methylazetidin-1-yl)methanone], the figures for the half-inhibitory concentration (IC50) on adenosine A2A receptor and on adenosine A2B receptor were over 500 nM and 10 to 50 nM, respectively. For the same compound, the Ratio on adenosine A2B receptor worked out at 22.37.

On to `C[C@H](Nc1nc(C(=O)N2CC(C)(O)C2)c2sccc2n1)c1ccccn1` [Example Z101, (S)-(3-Hydroxy-3-methylazetidin-1-yl)(2-((1-(pyridin-2-yl)ethyl)amino)thieno[3,2-d]pyrimidin-4-yl)methanone], for which the IC50 lay within 100 to 500 nM on adenosine A2A receptor and 10 to 50 nM on adenosine A2B receptor.

Regarding `C[C@H](Nc1nc(C(=O)NCc2cncc(C#N)c2)c2sccc2n1)c1ccccn1` [Example Z102, (S)—N-((5-Cyanopyridin-3-yl)methyl)-2-((1-(pyridin-2-yl)ethyl)amino)thieno[3,2-d]pyrimidine-4-carboxamide], the IC50 on adenosine A2A receptor and at adenosine A2B receptor was 100 to 500 nM each time. Besides, the Ratio at adenosine A2B receptor stood at 2.24.

Take `O=C(c1nc(NCc2cccnc2)nc2ccsc12)N1CC[C@@H](O)C1` [Example Z103, (R)-(3-Hydroxypyrrolidin-1-yl)(2-((pyridin-3-ylmethyl)amino)thieno[3,2-d]pyrimidin-4-yl)methanone]: the concentration for half-maximal inhibition (IC50) at adenosine A2A receptor is over 500 nM. For the same compound, at adenosine A2B receptor, the Ratio turned out to be 3.68 and the 50% inhibitory concentration (IC50) was in the range of 100 to 500 nM.

`C[C@H](Nc1nc(C(=O)NCc2cncc(C#N)c2)c2sccc2n1)c1cccnc1` [Example Z104, (S)—N-((5-Cyanopyridin-3-yl)methyl)-2-((1-(pyridin-3-yl)ethyl)amino)thieno[3,2-d]pyrimidine-4-carboxamide]: the concentration for half-maximal inhibition (IC50) at adenosine A2A receptor fell in the range of 100 to 500 nM. For the same compound, at adenosine A2B receptor, the Ratio worked out at 0.50 and the concentration for half-maximal inhibition (IC50) was over 500 nM.

Regarding `C[C@H](Nc1nc(C(=O)NCCO)c2sccc2n1)c1ccccn1` [Example Z106, (S)—N-(2-hydroxyethyl)-2-((1-(pyridin-2-yl)ethyl)amino)thieno[3,2-d]pyrimidine-4-carboxamide], the values for the IC50 on adenosine A2A receptor and at adenosine A2B receptor were 100 to 500 nM and 10 to 50 nM, respectively. Further, on adenosine A2B receptor, the Ratio is recorded as 2.95.

For `CC(C)(Nc1nc(C(=O)N2CCCC2)c2sccc2n1)c1cccnc1` [Example Z112, (2-((2-(Pyridin-3-yl)propan-2-yl)amino)thieno[3,2-d]pyrimidin-4-yl)(pyrrolidin-1-yl)methanone], on adenosine A2A receptor, the IC50 was over 500 nM. Also, on adenosine A2B receptor, the Ratio worked out at 7.09 and the IC50 was 100 to 500 nM.

Turning to `COc1cncc(CNc2nc(C(=O)N3CCCC3)c3sccc3n2)c1` [Example Z114, (2-(((5-Methoxypyridin-3-yl)methyl)amino)thieno[3,2-d]pyrimidin-4-yl)(pyrrolidin-1-yl)methanone], the values for the half-inhibitory concentration (IC50) on adenosine A2A receptor and on adenosine A2B receptor were over 500 nM and 100 to 500 nM, respectively. The Ratio at adenosine A2B receptor amounted to 5.15.

On to `COc1cncc(CNc2nc(C(=O)N3CCC3)c3sccc3n2)c1` [Example Z116, Azetidin-1-yl(2-(((5-methoxypyridin-3-yl)methyl)amino)thieno[3,2-d]pyrimidin-4-yl)methanone], for which the IC50 on adenosine A2A receptor is over 500 nM. Moreover, at adenosine A2B receptor, the Ratio is listed as 4.17 and the IC50 lay in the range of 100 to 500 nM.

With `COc1cncc(CNc2nc(C(=O)N3CC(C)C3)c3sccc3n2)c1` [Example Z117, (2-(((5-Methoxypyridin-3-yl)methyl)amino)thieno[3,2-d]pyrimidin-4-yl)(3-methylazetidin-1-yl)methanone], the 50% inhibitory concentration (IC50) on adenosine A2A receptor was over 500 nM. Further, on adenosine A2B receptor, the Ratio was 10.87 and the IC50 lay in the range of 50 to 100 nM.

For `O=C(c1nc(NCc2cccc(Cl)c2)nc2ccsc12)N1CC[C@@H](O)C1` [Example Z118, (R)-(2-((3-Chlorobenzyl)amino)thieno[3,2-d]pyrimidin-4-yl)(3-hydroxypyrrolidin-1-yl)methanone], the IC50 at adenosine A2A receptor is over 500 nM. Moreover, on adenosine A2B receptor, the Ratio is reported as 13.75 and the IC50 lay within 50 to 100 nM.

Regarding `COc1cncc(CNc2nc(C(=O)N3CC(O)C3)c3sccc3n2)c1` [Example Z119, (3-Hydroxyazetidin-1-yl)(2-(((5-methoxypyridin-3-yl)methyl)amino)thieno[3,2-d]pyrimidin-4-yl)methanone], the IC50 at adenosine A2A receptor was over 500 nM; at adenosine A2B receptor, 100 to 500 nM. For the same compound, the Ratio on adenosine A2B receptor was 2.08.

On to `O=C(c1nc(NCc2cccc(Cl)c2)nc2ccsc12)N1CCCC1` [Example Z120, (2-((3-Chlorobenzyl)amino)thieno[3,2-d]pyrimidin-4-yl)(pyrrolidin-1-yl)methanone], for which the IC50 on adenosine A2A receptor fell in the range of 100 to 500 nM. In addition, at adenosine A2B receptor, the Ratio was determined as 13.39 and the IC50 lay within 10 to 50 nM.

With `COCC(Nc1nc(C(=O)N2CC[C@H](O)C2)c2sccc2n1)c1cccnc1` (stereo partly drawn) [Example Z124, ((S)-3-Hydroxypyrrolidin-1-yl)(2-((2-methoxy-1-(pyridin-3-yl)ethyl)amino)thieno[3,2-d]pyrimidin-4-yl)methanone], the IC50 was over 500 nM on adenosine A2A receptor and 100 to 500 nM at adenosine A2B receptor. Moreover, the Ratio at adenosine A2B receptor amounted to 2.13.

Take `COCC(Nc1nc(C(=O)N2CCCC2)c2sccc2n1)c1cccnc1` (stereo not shown) [Example Z127, (2-((2-Methoxy-1-(pyridin-3-yl)ethyl)amino)thieno[3,2-d]pyrimidin-4-yl)(pyrrolidin-1-yl)methanone]: the IC50 at adenosine A2A receptor is 100 to 500 nM; at adenosine A2B receptor, 10 to 50 nM.

In general, IC50 refers to the concentration that gives 50% inhibition.
